Tested on: mixture of bacterial species: Pseudomonas aeruginosa, Pseudomonas fluorescens, Pseudomonas oleovorans, Pseudomonas rubescens, Pseudomonas stutzeri, Alcaligenes …
Assay: Microbiological stress test (preservation stress test) in calcium carbonate slurry
Format: cell-based
Conditions: calcium carbonate slurry (solids 70-75%), 3 days 60° C. pre-stress, weekly contamination
Protocol: Microbiological Stress Test The microbiological stress test examines the susceptibility of water-based systems to microbial attack and the efficacy of preservatives. To this end, defined concentrations of the preservatives are incorporated into the water-based systems. To simulate reality-like conditions, depending on the medium to be examined, the sample may be stored at elevated temperatures (for example for 7 days at 40° C., for 3 days at 60° C. or the like) prior to carrying out the actual preservation test, in order to evaluate the preservatives to be tested under conditions which are as realistic as possible. After the preliminary work has been concluded, there is, at weekly intervals, a contamination with microorganisms of a defined type over a test period of at most 6 weeks. 2-3 and 7 days after each contamination it is established by germ number determination, whether there has been a complete kill or at least an inhibition of proliferation of the microorganisms introduced, compared to the non-preserved control samples. On account of the microorganism populations known to predominate in mineral suspensions and dispersions, for the experiment, a mixture of the following bacterial species was used for the test: Pseudomonas aeruginosa Pseudomonas fluorescens Pseudomonas oleovorans Pseudomonas rubescens Pseudomonas stutzeri Alcaligenes faecalis Citrobacter freundii Corynebacterium sp. Very good efficacy is achieved when the preserved samples effect a kill of the microorganisms introduced even after 6 contamination cycles. […] Using a calcium carbonate slurry (solids content 70-75%), a preservation stress test was carried out in accordance with the above scheme. After incorporation of the respective biocide products at the stated concentrations, the samples were exposed to thermal stress at 60° C. for 3 days in order to identify unstable active compound components in the biocide products even at this phase of the experiment by subsequent loss of activity.

O=c1[nH]sc2ccccc12 [benzisothiazolinone, 1,2-benzisothiazolin-3-one]
Preservation state Week 1 (100 ppm): ok
Preservation state Week 2 (100 ppm): spoilt
Preservation state Week 3 (100 ppm): spoilt
Preservation state Week 4 (100 ppm): spoilt
Preservation state Week 5 (100 ppm): spoilt
Preservation state Week 6 (100 ppm): spoilt
Preservation state Week 1 (150 ppm): ok
Preservation state Week 2 (150 ppm): ok
Preservation state Week 3 (150 ppm): spoilt
Preservation state Week 4 (150 ppm): spoilt
Preservation state Week 5 (150 ppm): spoilt
Preservation state Week 6 (150 ppm): spoilt
Preservation state Week 1 (200 ppm): ok
Preservation state Week 2 (200 ppm): ok
Preservation state Week 3 (200 ppm): ok
Preservation state Week 4 (200 ppm): spoilt
Preservation state Week 5 (200 ppm): spoilt
Preservation state Week 6 (200 ppm): spoilt
